Patent US8501446B2 (Vertex Pharmaceuticals Incorporated, priority 2004, dated 2013)
pKi: −log10 of the molar value.

Experiments:
Format in all cases: biochemical
ROCK I (AA 6-553) = molecular target: T1, ROCK I (AA 6-553) (Homo sapiens, UniProt Q13464); experiment: ROCK inhibition assay, standard coupled enzyme system ("Enzyme"); settings: enzyme-linked assay
T1 construct: ROCK I (AA 6-553)
Procedure, shortened: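 ROCK I (AA 6-553) at 45 nM and 30 °C with 45 μM ATP and 200 μM peptide, in 100 mM HEPES pH 7.5, 10 mM MgCl2, 25 mM NaCl, 2 mM DTT, 1.5% DMSO. ADP output read by a PK/LDH coupled system: 2.5 mM PEP, 350 μM NADH, 30 μg/ml PK, 10 μg/ml LDH.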

[1] = molecular target: T2, full length Aurora-A (AA 1-403) (Homo sapiens, UniProt O14965); experiment: Aurora-A inhibition assay, standard coupled enzyme system; settings: average Ki if more than one value determined
T2 construct: full length Aurora-A (AA 1-403)
T2 sequence (O14965 1-403): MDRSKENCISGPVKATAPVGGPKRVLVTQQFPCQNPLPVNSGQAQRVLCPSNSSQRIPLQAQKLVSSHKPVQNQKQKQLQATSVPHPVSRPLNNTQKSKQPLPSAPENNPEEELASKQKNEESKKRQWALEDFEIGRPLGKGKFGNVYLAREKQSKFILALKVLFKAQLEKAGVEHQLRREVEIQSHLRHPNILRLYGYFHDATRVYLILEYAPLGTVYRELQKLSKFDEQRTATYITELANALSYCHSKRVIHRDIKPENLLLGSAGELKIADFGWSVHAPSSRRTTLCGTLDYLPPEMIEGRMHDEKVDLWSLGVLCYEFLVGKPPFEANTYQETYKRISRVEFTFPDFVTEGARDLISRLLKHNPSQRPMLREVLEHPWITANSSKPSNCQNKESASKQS

Aurora-B = Aurora-B (Homo sapiens, UniProt Q96GD4); experiment: Aurora-B inhibition assay, radioactive assay; settings: average Ki if more than one value determined
Description: Compounds were screened for their ability to inhibit JAK3 using a standard radioactive enzyme assay. 1.5 μL/well of a DMSO stock containing serial dilutions of a compound of the present invention (concentrations ranging from 667 μM to 46 nM) was placed in a 96 well polycarbonate plate. 50 μL per well of kinase buffer (100 mM HEPES (pH 7.4), 10 mM MgCl2, 25 mM NaCl, 1 mM DTT, and 0.01% bovine serum albumin (BSA)) containing 2 μM poly(Glu)4Tyr and 10 μM ATP was also added to the plate. To initiate the reaction, 50 μL kinase buffer containing 2 nM JAK3 enzyme was added. Final ATP concentration was 5 μM [γ-^33P] ATP (200 μCi ^33P ATP/μmol ATP (Perkin Elmer, Cambridge, Mass.). After 20 minutes at room temperature (25° C.), the reaction was stopped by adding 50 μL 20% trichloroacetic acid (TCA)/0.4 mM ATP to each well. The entire content of each well was then transferred to a 96 well glass fiber filter plate using a TomTek Cell Harvester. After washing, 60 μL scintillation fluid was added and ^33P incorporation detected using a Perkin Elmer TopCount. After removing mean background values for all of the data points the data was fit using Prism software to obtain a Ki(app). Inhibition of JAK2 was measured as above except that final poly(Glu)4Tyr concentration was 15 μM and final ATP concentration was 12 μM.
Some compounds were screened for their ability to inhibit ROCK using a standard radioactive enzyme assay. Assays were carried out in a solution containing 100 mM HEPES (pH 7.5), 10 mM MgCl2, 25 mM NaCl, 2 mM DTT, and 1.5% DMSO. Final substrate concentrations in the assay were 13 μM [γ-^33P] ATP (25 mCi ^33P ATP/mmol ATP, Perkin Elmer, Cambridge, Mass./Sigma Chemicals, St Louis, Mo.) and 27 μM Myelin Basic Protein (MBP). Final enzyme concentration in the assay was 5 nM ROCK. Assays were carried out at room temperature. 1.5 μl of DMSO stock containing serial dilutions of the compound of the present invention (concentrations ranging from 10 μM to 2.6 nM) was placed in a 96 well plate. 50 μl of Solution 1 (100 mM HEPES (pH 7.5), 10 mM MgCl2, […]) was added to the plate. The reaction was initiated by addition of 50 μl of Solution 2 (100 mM HEPES (pH 7.5), 10 mM MgCl2, 4 mM DTT, […] and 10 nM ROCK). After 2 hours the reaction was quenched with 50 μL of 30% trichloroacetic acid (TCA, Fisher) containing 9 mM ATP. Transfer of 140 μL of the quenched reaction to a glass fiber filter plate (Corning, Cat. No. 3511) was followed by washing 3 times with 5% TCA. 50 μL of Optima Gold scintillation fluid (Perkin Elmer) was added and the plates were counted on a Top Count (Perkin Elmer). After removing mean background values for all of the data points the data was fit using Prism software to obtain a Ki(app).
An assay stock buffer solution was prepared containing all of the reagents listed above with the exception of ATP and the test compound of interest. The assay stock buffer solution (60 μl) was incubated in a 96 well plate with 2 μl of the test compound of interest at final concentrations spanning 0.002 μM to 30 μM at 30° C. for 10 min. Typically, a 12 point titration was conducted by preparing serial dilutions (from 1 mM compound stocks) with DMSO of the test compounds in daughter plates. The reaction was initiated by the addition of 5 μl of ATP (final concentration 200 μM). Rates of reaction were obtained using a Molecular Devices Spectramax plate reader (Sunnyvale, Calif.) over 10 min at 30° C. The Ki values were determined from the rate data as a function of inhibitor concentration using computerized nonlinear regression (Prism 3.0, Graphpad Software, San Diego, Calif.). Aurora-C activity was screened in a similar manner using Aurora-C protein. Aurora-B activity was screened using a radioactive assay, such as described in Examples 1 and 2, but using Aurora-B protein.

T1 sequence (Q13464 6-553, species assumed): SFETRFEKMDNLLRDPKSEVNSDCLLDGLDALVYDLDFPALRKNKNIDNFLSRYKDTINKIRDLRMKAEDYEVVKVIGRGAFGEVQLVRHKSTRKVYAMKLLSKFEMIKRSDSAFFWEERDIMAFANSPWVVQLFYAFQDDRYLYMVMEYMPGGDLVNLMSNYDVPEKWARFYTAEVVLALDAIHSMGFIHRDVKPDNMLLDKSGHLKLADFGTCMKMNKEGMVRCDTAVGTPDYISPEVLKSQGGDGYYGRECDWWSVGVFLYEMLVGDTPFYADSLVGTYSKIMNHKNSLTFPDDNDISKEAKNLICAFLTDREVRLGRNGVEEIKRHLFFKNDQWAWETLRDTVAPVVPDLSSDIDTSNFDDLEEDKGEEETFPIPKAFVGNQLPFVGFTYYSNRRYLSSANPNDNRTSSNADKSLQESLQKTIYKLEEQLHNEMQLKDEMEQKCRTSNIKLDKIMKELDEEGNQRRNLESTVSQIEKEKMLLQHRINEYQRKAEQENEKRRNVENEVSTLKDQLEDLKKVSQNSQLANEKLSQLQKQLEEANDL
Aurora-B, sequence (Q96GD4 whole entry): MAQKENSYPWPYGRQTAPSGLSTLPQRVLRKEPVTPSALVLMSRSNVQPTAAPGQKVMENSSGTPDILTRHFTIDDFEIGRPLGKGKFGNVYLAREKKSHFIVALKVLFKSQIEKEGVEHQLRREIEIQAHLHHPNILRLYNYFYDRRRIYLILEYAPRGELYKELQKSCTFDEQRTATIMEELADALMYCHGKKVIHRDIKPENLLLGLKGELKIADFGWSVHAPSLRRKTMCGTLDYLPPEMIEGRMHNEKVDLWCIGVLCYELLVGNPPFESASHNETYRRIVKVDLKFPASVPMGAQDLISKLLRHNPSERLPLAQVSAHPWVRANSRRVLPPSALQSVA

Row | SMILES | pKi (ROCK I (AA 6-553)) | pKi [1] | pKi (Aurora-B)
1 | COc1cccc([C@H](C)Nc2nc(-c3c[nH]c4ncc(Cl)cc34)ncc2F)c1 [Compound 305] | 5.30 to 6.30 | > 6.30 | > 6.30
2 | C[C@H](Nc1nc(-c2c[nH]c3ncc(Cl)cc23)ncc1F)C(=O)NCCNC(=O)OC(C)(C)C [Compound 426] | 5.30 to 6.30 | > 6.30 | > 6.30
3 | C[C@H](Nc1nc(-c2c[nH]c3ncc(Cl)cc23)ncc1F)C(=O)NCCN1CCCC1 [Compound 436] | 5.30 to 6.30 | 5.30 to 6.30 | > 6.30
4 | C[C@H](Nc1nc(-c2c[nH]c3ncc(Cl)cc23)ncc1F)C(=O)NCC[C@H]1CCCN1C [Compound 448] | 5.30 to 6.30 | 5.30 to 6.30 | 5.30 to 6.30
5 | COc1ccccc1OCCNC(=O)[C@H](C)Nc1nc(-c2c[nH]c3ncc(Cl)cc23)ncc1F [Compound 453] | 5.30 to 6.30 | 5.30 to 6.30 | 5.30 to 6.30
6 | C[C@H](Nc1ccnc(-c2c[nH]c3ncc(Cl)cc23)n1)C(=O)NCC(F)(F)F [Compound 413] | 5.30 to 6.30 | > 6.30 | > 6.30
7 | C[C@H](Nc1nc(-c2c[nH]c3ncc(Cl)cc23)ncc1[N+](=O)[O-])c1ccc(F)cc1 [Compound 422] | 5.30 to 6.30 | > 6.30 | > 6.30
8 | Cc1ccccc1Nc1nc(-c2c[nH]c3ncc(Cl)cc23)ncc1F [Compound 299] | > 6.30 | > 6.30 | > 6.30
9 | C[C@H](Nc1cc(N2CCN(C)CC2)nc(-c2c[nH]c3ncc(Cl)cc23)n1)C(=O)NCC(F)(F)F [Compound 414] | 5.30 to 6.30 | 5.30 to 6.30 | 5.30 to 6.30
10 | C[C@H](Nc1nc(-c2c[nH]c3ncc(Cl)cc23)ncc1F)C(=O)NCCN1CCOCC1 [Compound 435] | 5.30 to 6.30 | 5.30 to 6.30 | 5.30 to 6.30
11 | C[C@H](Nc1cc(N2CCNCC2)nc(-c2c[nH]c3ncc(Cl)cc23)n1)C(=O)NCC(F)(F)F [Compound 416] | 5.30 to 6.30 | > 6.30 | 5.30 to 6.30
12 | CCc1cnc(Cl)nc1-c1c[nH]c2ncc(Cl)cc12 [Compound 428] | 5.30 to 6.30 | > 6.30 | 5.30 to 6.30
13 | Cc1cnc(-c2c[nH]c3ncc(Cl)cc23)nc1N[C@@H](C)c1ccc(F)cc1 [Compound 322] | 5.30 to 6.30 | > 6.30 | > 6.30
14 | CC(C)Nc1nc(-c2c[nH]c3ncc(Cl)cc23)ncc1F [Compound 315] | 5.30 to 6.30 | > 6.30 | 5.30 to 6.30
15 | C[C@H](Nc1cc(N2CCN(C(=O)OC(C)(C)C)CC2)nc(-c2c[nH]c3ncc(Cl)cc23)n1)C(=O)NCC(F)(F)F [Compound 415] | 5.30 to 6.30 | > 6.30 | > 6.30
16 | C[C@H](Nc1nc(-c2c[nH]c3ncc(Cl)cc23)ncc1F)C(=O)NC1CCCCC1 [Compound 406] | 5.30 to 6.30 | > 6.30 | 5.30 to 6.30
17 | CC[C@H](Nc1nc(-c2c[nH]c3ncc(Cl)cc23)ncc1F)c1ccccc1 [Compound 354] | 5.30 to 6.30 | > 6.30 | > 6.30
18 | C[C@@H](Nc1nc(-c2c[nH]c3ncc(Cl)cc23)ncc1F)c1ccc([N+](=O)[O-])cc1 [Compound 310] | 5.30 to 6.30 | > 6.30 | > 6.30

Row | SMILES | pKi (ROCK I (AA 6-553)) | pKi [1] | pKi (Aurora-B)
19 | C[C@H](Nc1nc(-c2c[nH]c3ncc(Cl)cc23)ncc1F)C(=O)NCCc1c[nH]c2ccccc12 [Compound 437] | 5.30 to 6.30 | > 6.30 | 5.30 to 6.30
20 | C[C@H](Nc1nc(-c2c[nH]c3ncc(Cl)cc23)ncc1F)c1cccc(OC(=O)NO)c1 [Compound 375] | 5.30 to 6.30 | > 6.30 | > 6.30
21 | C[C@H](Nc1nc(-c2c[nH]c3ncc(Cl)cc23)ncc1N)c1ccc(F)cc1 [Compound 423] | 5.30 to 6.30 | > 6.30 | > 6.30
22 | Fc1cnc(-c2c[nH]c3ncc(Cl)cc23)nc1N[C@H]1CCc2ccccc21 [Compound 302] | 5.30 to 6.30 | > 6.30 | > 6.30
23 | CNC(=O)[C@H](COC)Nc1nc(-c2c[nH]c3ncc(Cl)cc23)ncc1F [Compound 388] | 5.30 to 6.30 | > 6.30 | > 6.30
24 | C[C@H](Nc1nc(-c2c[nH]c3ncc(Cl)cc23)nc2ccccc12)c1ccc(F)cc1 [Compound 404] | 5.30 to 6.30 | > 6.30 | 5.30 to 6.30
25 | C[C@H](Nc1nc(-c2c[nH]c3ncc(Cl)cc23)ncc1F)C(=O)NCCOc1ccccc1 [Compound 457] |  | 5.30 to 6.30 | 5.30 to 6.30
26 | C[C@H](Nc1nc(-c2c[nH]c3ncc(Cl)cc23)ncc1F)C(=O)NCCc1ccccn1 [Compound 438] | 5.30 to 6.30 | 5.30 to 6.30 | 5.30 to 6.30
27 | C[C@H](Nc1nc(-c2c[nH]c3ncc(Cl)cc23)ncc1F)C(=O)NCCCN1CCCC1 [Compound 439] | 5.30 to 6.30 | > 6.30 | > 6.30
28 | C[C@H](Nc1nc(-c2c[nH]c3ncc(Cl)cc23)ncc1F)C(=O)NCCCN1CCCC1=O [Compound 460] |  | 5.30 to 6.30 | 5.30 to 6.30
29 | C[C@H](Nc1nc(-c2c[nH]c3ncc(Cl)cc23)ncc1F)C(=O)NCCN(C)C(=O)OC(C)(C)C [Compound 451] | 5.30 to 6.30 | 5.30 to 6.30 | 5.30 to 6.30
30 | Fc1cnc(-c2c[nH]c3ncc(Cl)cc23)nc1NC1CCCc2ccccc21 (stereo not drawn) [Compound 330] | 5.30 to 6.30 | > 6.30 | > 6.30
31 | C[C@H](Nc1nc(-c2c[nH]c3ncc(Cl)cc23)ncc1F)c1cccc(OCCO)c1 [Compound 341] | 5.30 to 6.30 | > 6.30 | > 6.30
32 | CC(C)OCCCNC(=O)[C@H](C)Nc1nc(-c2c[nH]c3ncc(Cl)cc23)ncc1F [Compound 440] | 5.30 to 6.30 | 5.30 to 6.30 | 5.30 to 6.30
33 | C[C@H](Nc1nc(-c2c[nH]c3ncc(Cl)cc23)ncc1F)C(=O)NCCc1nc2ccccc2[nH]1 [Compound 459] |  | 5.30 to 6.30 | 5.30 to 6.30
34 | C#CCNc1nc(-c2c[nH]c3ncc(Cl)cc23)ncc1F [Compound 382] |  | > 6.30 | 5.30 to 6.30
35 | C[C@H](Nc1cc(NCCN(C)C)nc(-c2c[nH]c3ncc(Cl)cc23)n1)C(=O)NCC(F)(F)F [Compound 419] |  | 5.30 to 6.30 | 5.30 to 6.30
36 | CCCC[C@H](C)NC(=O)[C@H](C)Nc1nc(-c2c[nH]c3ncc(Cl)cc23)ncc1F [Compound 463] |  | > 6.30 | 5.30 to 6.30
